Experimental findings from patent US20230113609A1, “SSTR5 ANTAGONISTS” (Kallyope, Inc., priority 2019, published 2023) are described below.

The structures appear in SMILES notation.

In the experiment the target is T1, human SSTR5 (Homo sapiens, UniProt P35346).
T1 construct: expressed in transfected cells
T1 sequence (P35346 whole entry): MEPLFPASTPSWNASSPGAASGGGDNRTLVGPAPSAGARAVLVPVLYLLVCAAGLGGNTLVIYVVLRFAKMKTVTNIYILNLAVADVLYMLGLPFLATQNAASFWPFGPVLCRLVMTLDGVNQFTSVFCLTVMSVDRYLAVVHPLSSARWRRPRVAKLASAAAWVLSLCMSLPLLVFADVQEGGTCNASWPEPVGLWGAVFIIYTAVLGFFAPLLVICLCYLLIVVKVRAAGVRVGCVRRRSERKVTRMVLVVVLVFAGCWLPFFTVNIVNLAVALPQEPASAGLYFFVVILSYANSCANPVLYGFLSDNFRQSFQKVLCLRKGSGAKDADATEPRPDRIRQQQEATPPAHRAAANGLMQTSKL
Put plainly: Inositol phosphate accumulation assay (IP1 HTRF, antagonist mode). Format: cell-based. The following applies: CHO-K1 cells co-expressing human SSTR5 with Gqi5, SST28 agonist at concentration generating 90% of full activation. From the text: CHO-K1 cells stably co-expressing human SSTR5 with Gqi5 were developed using Jump-In technology from Thermo-Fisher. Gqi5 is the mouse G alpha q protein, that was modified to interact with Gi-coupled GPCRs as described previously (Coward, P.; Chan, S. D.; Wada, H. G.; Humphries, G. M.; Conklin, B. R. Chimeric G proteins Allow a High-Throughput Signaling Assay of Gi-Coupled Receptors. Anal Biochem. 1999, 270(2),242-248).
Co-expression of Gqi5 with SSTR5 allowed monitoring of SSTR5 activity by following IP1 accumulation. The assay was performed in a 384-well plate format using the IP1 assay kit from Cis-Bio in an antagonist mode, i.e., pre-incubation with antagonist following by receptor activation by agonist at a concentration generating 90% of full activation. Frozen cells expressing human SSTR5 were thawed, washed, and then plated in DMEM supplemented with 10% FBS and non-essential amino acids. 40 μL of 2.5×10^5 cells/mL were plated on a Poly D-Lysine coated 384-well white plate. The cells were then incubated for 16 hr. at 37° C/5% CO2. After 16 hour the medium was removed, and 10 μL of stimulation buffer was added to the cells. Test compounds were dissolved in DMSO at concentrations 2000-fold that of the final assay concentrations. 7.5 nLcompound solutions were transferred to the cell plates using a Labcyte Echo® acoustic liquid handler. The plates were then incubated for 15 minutes at 37° C/5%CO2. After the first incubation, 5 μL of 30 nM SST28 were added to the cells, and the cells were incubated for 90 minutes at 37° C/5%CO2. 5 μL of detection buffer (prepared as described in the IP-1 kit) was added to each well, and the plates were incubated at RT for 1 hour.
TR-FRET was measured using a ClarioSTAR plate reader, calculating the ratio between emissions at 665 nm and 620 nm (HTRF ratio). The HTRF ratio for positive (Max) and negative (Min) controls were used to normalize HTRF data and generate values for % inhibition. IC50 and maximal inhibition values were determined using a standard 4-parameter fit.
(In general: Time-resolved FRET reads energy transfer from a long-lived donor to a nearby acceptor.)
Usually IC50 stands for the concentration needed to halve the response being measured. `CCOc1cc(C(=O)OC)c(C2CC2)cc1CN1CCC2(CC1)CC(=O)N(c1ccc(CC(=O)NCCNC(=O)NC(CO)(CO)CO)cc1)C2` [Example 14, methyl 2-cyclopropyl-4-((2-(4-(2-((2-(3-(1,3-dihydroxy-2-(hydroxymethyl)propan-2-yl)ureido)ethyl)amino)-2-oxoethyl)phenyl)-3-oxo-2,8-diazaspiro[4.5]decan-8-yl)methyl)-5-ethoxy benzoate]: the IC50 was > 5000 nM.
For `CCOc1cc(-c2ccc(F)cc2)c(C2CC2)cc1CN1CCC2(CC1)CN(c1ccc(C(=O)NCCO)cc1)C(=O)N2` [Example 69, 4-(8-((2-cyclopropyl-5-ethoxy-4′-fluoro-[1,1′-biphenyl]-4-yl)methyl)-2-oxo-1,3,8-triazaspiro[4.5]decan-3-yl)-N-(2-hydroxyethyl)benzamide] the value was ≤ 100 nM.
For the molecule `CCOc1cc(C(=O)OC)c(C2CC2)cc1CN1CCC2(CC1)CC(=O)N(c1ccc(C(=O)NCCCP(=O)(O)O)cc1)C2` [Example 32, (3-(4-(8-(5-cyclopropyl-2-ethoxy-4-(methoxycarbonyl)benzyl)-3-oxo-2,8-diazaspiro[4.5]decan-2-yl)benzamido)propyl)phosphonic acid], the IC50 is > 5000 nM.
With `CCOc1cc(C(=O)OC)c(C2CC2)cc1CN1CCC2(CC1)CC(=O)N(c1ccc(C(=O)NCCOCCOCCO)cc1)C2` [Example 49, methyl 2-cyclopropyl-5-ethoxy-4-((2-(4-((2-(2-(2-hydroxyethoxy)ethoxy)ethyl)carbamoyl)phenyl)-3-oxo-2,8-diazaspiro[4.5]decan-8-yl)methyl)benzoate], the IC50 fell in the range of 100 to 1000 nM.
Take `CCOc1cc(-c2ccc(F)cn2)c(C2CC2)cc1CN1CCC2(CC1)CN([C@H]1CC[C@@](C)(C(=O)NCCOCCO)CC1)C(=O)O2` [compound 89]: the IC50 lay within 100 to 1000 nM.
Regarding `CCOc1cc(C(=O)OC)c(C2CC2)cc1CN1CCC2(CC1)CC(=O)N(c1ccc(C(=O)N(C)CCCC(=O)O)cc1)C2` [Example 41, 4-(4-(8-(5-cyclopropyl-2-ethoxy-4-(methoxycarbonyl)benzyl)-3-oxo-2,8-diazaspiro[4.5]decan-2-yl)-N-methylbenzamido)butanoic acid], the IC50 was > 5000 nM.
As for `CCOc1cc(C#N)c(C2CC2)cc1CN1CCN(C(=O)Oc2ccc(C(=O)NCCCC(=O)NCCO)cc2)CC1` [compound 95, [4-[[4-(2-hydroxyethylamino)-4-oxo-butyl]carbamoyl]phenyl]4-[(4-cyano-5-cyclopropyl-2-ethoxy-phenyl)methyl]piperazine-1-carboxylate], the IC50 was > 5000 nM.
For `CCOc1cc(CN2CCC3(CC2)CN(c2ccc(C(=O)N4CC(C(=O)NCCC[N+](C)(C)C)C4)cc2)C(=O)O3)cc(OCC)c1-c1ccc(F)cc1` [Example 8, 3-(1-(4-(8-((2,6-diethoxy-4′-fluoro-[1,1′-biphenyl]-4-yl)methyl)-2-oxo-1-oxa-3,8-diazaspiro[4.5]decan-3-yl)benzoyl)azetidine-3-carboxamido)-N,N,N-trimethylpropan-1-aminium] the value was 1000 to 5000 nM.
For the molecule `CCOc1cc(CN2CCC3(CC2)CN(c2ccc(C(=O)NCCCC(=O)NCCO)cc2)C(=O)O3)cc(OCC)c1-c1ccc(F)cc1` [compound 1, 4-(8-((2,6-diethoxy-4′-fluoro-[1,1′-biphenyl]-4-yl)methyl)-2-oxo-1-oxa-3,8-diazaspiro [4.5]decan-3-yl)-N-(4-((2-hydroxyethyl)amino)-4-oxobutyl)benzamide], the IC50 was in the range of 100 to 1000 nM.
Take `CCOc1cc(-c2ccc(F)cc2)c(C2CC2)cc1CN1CCN(C(=O)Oc2ccc(C(=O)NC[C@H](O)[C@@H](O)[C@H](O)[C@H](O)CO)cc2)CC1` [compound 94]: the IC50 was ≤ 100 nM.
Next, `CCOc1cc(C(=O)OC)c(C2CC2)cc1CN1CCC2(CC1)CC(=O)N(c1ccc(C(=O)NCCOCCO)cc1)C2` [Example 26, methyl 2-cyclopropyl-5-ethoxy-4-((2-(4-((2-(2-hydroxyethoxy)ethyl)carbamoyl)phenyl)-3-oxo-2,8-diazaspiro[4.5]decan-8-yl)methyl)benzoate]: 100 to 1000 nM; `CCOc1cc(C(=O)OC)c(C2CC2)cc1CN1CCC2(CC1)CC(=O)N(c1ccc(C(=O)NCCCC(=O)O)cc1)C2` [Example 23, 4-(4-(8-(5-cyclopropyl-2-ethoxy-4-(methoxycarbonyl)benzyl)-3-oxo-2,8-diazaspiro[4.5]decan-2-yl)benzamido) butanoic acid]: > 5000 nM.
In the case of `CCOc1cc(C(=O)OC)c(C2CC2)cc1CN1CCC2(CC1)CN(c1ccc(C(=O)NCCO)cc1)C(=O)N2` [Example 75, methyl 2-cyclopropyl-5-ethoxy-4-((3-(4-((2-hydroxyethyl)carbamoyl)phenyl)-2-oxo-1,3,8-triazaspiro[4.5]decan-8-yl)methyl)benzoate], the half-maximal inhibitory concentration (IC50) lay within 100 to 1000 nM.
Next, `CCOc1cc(-c2ccc(F)cc2)c(C2CC2)cc1CN1CCC2(CC1)CN(c1ccc(C(=O)NCCCS(N)(=O)=O)cc1)C(=O)O2` [Example 64, 4-(8-((2-cyclopropyl-5-ethoxy-4′-fluoro-[1,1′-biphenyl]-4-yl)methyl)-2-oxo-1-oxa-3,8-diazaspiro[4.5]decan-3-yl)-N-(3-sulfamoylpropyl)benzamide]: ≤ 100 nM; `CCOc1cc(C(=O)OC)c(C2CC2)cc1CN1CCC2(CC1)CC(=O)N(c1ccc(C(=O)NCCNC(N)=O)cc1)C2` [Example 38, methyl 2-cyclopropyl-5-ethoxy-4-((3-oxo-2-(4-((2-ureidoethyl)carbamoyl)phenyl)-2,8-diazaspiro[4.5]decan-8-yl)methyl)benzoate]: 100 to 1000 nM; `CCOc1cc(CN2CCC3(CC2)CN(c2ccc(C(=O)NCCC[N+](C)(C)C)cc2)C(=O)O3)cc(OCC)c1-c1ccc(F)cc1` [Example 6, 3-(4-(8-((2,6-diethoxy-4′-fluoro-[1,1′-biphenyl]-4-yl)methyl)-2-oxo-1-oxa-3,8-diazaspiro[4.5]decan-3-yl)benzamido)-N,N,N-trimethylpropan-1-aminium]: 100 to 1000 nM.
The molecule `CCOc1cc(C(=O)OC)c(C2CC2)cc1CN1CCC2(CC1)CC(=O)N(c1ccc(C(=O)N3CCC(CS(N)(=O)=O)CC3)cc1)C2` [Example 53, methyl 2-cyclopropyl-5-ethoxy-4-((3-oxo-2-(4-(4-(sulfamoylmethyl)piperidine-1-carbonyl)phenyl)-2,8-diazaspiro[4.5]decan-8-yl)methyl)benzoate] gave a 50% inhibitory concentration (IC50) of 100 to 1000 nM.
Consider `CCOc1cc(C(=O)OC)c(C2CC2)cc1CN1CCC2(CC1)CC(=O)N(c1ccc(C(=O)NC[C@H](O)[C@@H](O)[C@H](O)[C@H](O)CO)cc1)C2` [Example 37, methyl 2-cyclopropyl-5-ethoxy-4-((3-oxo-2-(4-(((2S,3R,4R,5R)-2,3,4,5,6-pentahydroxyhexyl)carbamoyl)phenyl)-2,8-diazaspiro[4.5]decan-8-yl)methyl)benzoate], for which the half-inhibitory concentration (IC50) is 1000 to 5000 nM.
As to `CCOc1cc(C(=O)OC)c(C2CC2)cc1CN1CCC2(CC1)CC(=O)N(c1ccc(C(=O)N3CCC(S(N)(=O)=O)CC3)cc1)C2` [Example 52, methyl 2-cyclopropyl-5-ethoxy-4-((3-oxo-2-(4-(4-sulfamoylpiperidine-1-carbonyl)phenyl)-2,8-diazaspiro[4.5]decan-8-yl)methyl)benzoate], the concentration for half-maximal inhibition (IC50) lay in the range of 100 to 1000 nM.
For `CCOc1cc(C(=O)OC)c(C2CC2)cc1CN1CCC2(CC1)CC(=O)N(c1ccc(C(=O)NCCCC(=O)NCCO)cc1)C2` [Example 15, methyl 2-cyclopropyl-5-ethoxy-4-((2-(4-((4-((2-hydroxyethyl)amino)-4-oxobutyl)carbamoyl)phenyl)-3-oxo-2,8-diazaspiro[4.5]decan-8-yl)methyl)benzoate] the value was 1000 to 5000 nM.
In turn, `CCOc1cc(C(=O)OC)c(C2CC2)cc1CN1CCC2(CC1)CC(=O)N(c1ccc(C(=O)NC(CO)CO)cc1)C2` [Example 19, methyl 2-cyclopropyl-4-((2-(4-((1,3-dihydroxypropan-2-yl)carbamoyl)phenyl)-3-oxo-2.8-diazaspiro[4.5]decan-8-yl)methyl)-5-ethoxybenzoate] returned an IC50 of 100 to 1000 nM.
`CCOc1cc(C(=O)OC)c(C2CC2)cc1CN1CCC2(CC1)CC(=O)N(c1ccc(C(=O)NCCC(=O)O)cc1)C2` [Example 25, 3-(4-(8-(5-cyclopropyl-2-ethoxy-4-(methoxycarbonyl)benzyl)-3-oxo-2,8-diazaspiro[4.5]decan-2-yl)benzamido)propanoic acid]: the half-maximal inhibitory concentration (IC50) lay in the range of 100 to 1000 nM.
As to `CCOc1cc(C(=O)OC)c(C2CC2)cc1CN1CCN(C(=O)Nc2ccc(C(=O)NC[C@H](O)[C@@H](O)[C@H](O)[C@H](O)CO)cc2)CC1` [compound 93, methyl 2-cyclopropyl-5-ethoxy-4-[[4-[[4-[[(2S,3R,4R,5R)-2,3,4,5,6-pentahydroxyhexyl]carbamoyl]phenyl]carbamoyl]piperazin-1-yl]methyl]benzoate], the IC50 was in the range of 1000 to 5000 nM.
